Results on seven compounds are retold here after ChEMBL document CHEMBL1201862, “PubChem BioAssay data set” (2004).

Test systems include HOP-92; KM12; UO-31; BT-549; NCI-H522; DU-145; Malme-3M; NCI-H460; M14; SF-295; SNB-75; SF-539; SW-620; OVCAR-4; HOP-62; OVCAR-8; SNB-19; A549; HL-60.
Holding throughout (experiment): NCI anticancer screen, dose series, 48 h

Values joined by “and” are separate entries in the source; they are usually repeats but may differ in a detail not shown here. Equal entries are not always repeated.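 Briefly, cells in 96-well plates were exposed to five compound concentrations for 48 h, and endpoints were estimated by linear interpolation. GI50: concentration for 50% inhibition of growth.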 Active and inactive are the calls of the source. No stated cut-off is given here; in the data, active = GI50 up to about 1.1 µM and inactive = higher.

On to `Clc1ccc(Nc2ncco2)cc1Cl`, for which the GI50 with HOP-92, in the experiment on KM12, in the experiment with UO-31, in the experiment with BT-549, with NCI-H522 and in the experiment on DU-145 was > 10 µM (inactive) throughout. Moreover, the GI50 in the experiment with Malme-3M, in the experiment with NCI-H460, with M14, in the experiment on SF-295, in the experiment with SNB-75 and in the experiment on SF-539 was > 10 µM (inactive) throughout. The GI50 with SW-620, in the experiment on OVCAR-4, with HOP-62, with OVCAR-8, in the experiment on SNB-19 and in the experiment on A549 was > 10 µM (inactive) each time.
In the case of `C=CCn1c(-c2cc(C(C)(C)C)c(O)c(C(C)(C)C)c2)cs/c1=N\C(P(=O)(O)O)P(=O)(O)O`, the GI50 with HOP-92 was > 100 µM (inactive); with KM12, 83 µM (inactive); with UO-31 it was > 100 µM (inactive); in the experiment with BT-549, > 100 µM (inactive); in the experiment with DU-145 it was > 100 µM (inactive); in the experiment on Malme-3M it was > 100 µM (inactive). Moreover, the GI50 in the experiment on NCI-H460 was > 100 µM (inactive); in the experiment on M14, > 100 µM (inactive); in the experiment on SF-295 it was > 100 µM (inactive); in the experiment with HL-60, 19.9 µM (inactive); in the experiment with SNB-75, > 100 µM (inactive); in the experiment with SF-539, > 100 µM (inactive). Moreover, the GI50 with SW-620, with OVCAR-4, with HOP-62, in the experiment with OVCAR-8, in the experiment with SNB-19 and with A549 was > 100 µM (inactive) each time.
For `CCNC(=O)CCC(C)[C@H]1CCC2C3C(C[C@H](OC(C)=O)[C@@]21C)[C@@]1(C)CCC2(C[C@H]1C[C@H]3OC(C)=O)OOC1(CCC(C)CC1)OO2` (stereo not given in full), the GI50 with HOP-92 is 1.68 µM (inactive) and 1.44 µM (inactive); in the experiment with KM12, 1.64 µM (inactive) and 1.57 µM (inactive); in the experiment on UO-31, 1.02 µM (active) and 1.35 µM (inactive); in the experiment on BT-549 it was 2.03 µM (inactive) and 1.57 µM (inactive); with NCI-H522, 1.47 µM (inactive) and 1.22 µM (inactive); in the experiment on DU-145, 1.73 µM (inactive) and 2.37 µM (inactive). Further, the GI50 in the experiment on Malme-3M was 2.23 µM (inactive) and 1.6 µM (inactive); in the experiment with NCI-H460, 2.39 µM (inactive) and 1.75 µM (inactive); with M14 it was 2.73 µM (inactive) and 2.14 µM (inactive); in the experiment on SF-295, 3.82 µM (inactive) and 2 µM (inactive); in the experiment on HL-60 it was 1.49 µM (inactive) and 1.97 µM (inactive); in the experiment with SNB-75, 1.59 µM (inactive) and 1.95 µM (inactive). The GI50 was 1.97 µM (inactive) and 2.75 µM (inactive) in the experiment on SF-539; 4.6 µM (inactive) and 2.74 µM (inactive) with SW-620; 1.24 µM (inactive) and 1.58 µM (inactive) in the experiment with OVCAR-4; 689 nM (active) and 1.31 µM (inactive) in the experiment with HOP-62; 2.61 µM (inactive) and 1.51 µM (inactive) in the experiment with OVCAR-8; 6.38 µM (inactive) and 4.21 µM (inactive) in the experiment with SNB-19. For the same compound, the GI50 with A549 was 1.5 µM (inactive) and 1.49 µM (inactive).
Turning to `CC(C)C1C(=O)N2CCCC2C2(O)OC(NC(=O)C3C=C4c5cccc6[nH]cc(c56)CC4N(C)C3)(C(C)C)C(=O)N12` (stereo not given), the GI50 with HOP-92 is 14.2 µM (inactive); in the experiment with KM12 it was 20.7 µM (inactive); in the experiment on UO-31 it was 13.5 µM (inactive); in the experiment on BT-549, 25.4 µM (inactive); with NCI-H522, 21 µM (inactive); in the experiment with DU-145, 35.4 µM (inactive). The GI50 with NCI-H460 was 19 µM (inactive); in the experiment with M14, 23.8 µM (inactive); in the experiment on SF-295, 28.2 µM (inactive); in the experiment with HL-60, 27 µM (inactive); in the experiment on SNB-75 it was 15.3 µM (inactive); in the experiment with SF-539, 19.8 µM (inactive). For the same compound, the GI50 in the experiment on SW-620 is 30.1 µM (inactive); with OVCAR-4, 18.3 µM (inactive); in the experiment with HOP-62 it was 23.4 µM (inactive); in the experiment with OVCAR-8, 19.2 µM (inactive); with SNB-19, 44.4 µM (inactive); in the experiment on A549 it was 20.7 µM (inactive).
For the compound `CC(=O)NC(CSC1=C2NC(=O)\C=C/C=C\C=C/C(C)C(O)CC(=O)/C(C)=C\CC(O)/C=C\C(C)C(O)C(C)C=C(C)C(=O)c3c(O)c(C)cc(c3C1=O)C2=O)C(=O)O` (stereo not given), the GI50 in the experiment on HOP-92 is > 100 µM (inactive); in the experiment on KM12 it was 33.7 µM (inactive); in the experiment with UO-31 it was > 100 µM (inactive); in the experiment with BT-549, > 100 µM (inactive); with NCI-H522 it was 17.3 µM (inactive); with DU-145 it was 61.8 µM (inactive). Further, the GI50 with Malme-3M is 52.1 µM (inactive); in the experiment with NCI-H460, 94 µM (inactive); with M14, > 100 µM (inactive); in the experiment on SF-295, > 100 µM (inactive); with HL-60, 23.6 µM (inactive); in the experiment with SNB-75 it was 28.6 µM (inactive). Moreover, the GI50 was > 100 µM (inactive) in the experiment with SF-539; 45.7 µM (inactive) with SW-620; > 100 µM (inactive) in the experiment with OVCAR-4; 74 µM (inactive) with HOP-62; > 100 µM (inactive) in the experiment with OVCAR-8; 61.4 µM (inactive) in the experiment on SNB-19. Moreover, the GI50 in the experiment with A549 is > 100 µM (inactive).
For `CC(=O)OCC1OC(n2cnc(C(N)=S)c2N)C(OC(C)=O)C1OC(C)=O` (stereo not given), the GI50 in the experiment with HOP-92, in the experiment on KM12, with UO-31, with BT-549, in the experiment with NCI-H522 and in the experiment on DU-145 was > 100 µM (inactive) throughout. The GI50 in the experiment on Malme-3M, in the experiment on NCI-H460, with M14, in the experiment on SF-295, with HL-60 and in the experiment with SNB-75 was > 100 µM (inactive) in each case. Further, the GI50 in the experiment on SF-539, in the experiment with SW-620, with OVCAR-4, in the experiment with HOP-62, with OVCAR-8 and in the experiment with SNB-19 was > 100 µM (inactive) each time. In the experiment on A549, the GI50 is > 100 µM (inactive).
As for `NC(=O)C1CCCN1C(=O)N(CCCl)N=O` (stereo not given), the GI50 in the experiment on HOP-92, with KM12, with UO-31, with BT-549, in the experiment with NCI-H522 and with DU-145 was > 100 µM (inactive) in each case. Further, the GI50 in the experiment with Malme-3M was > 100 µM (inactive); with NCI-H460, > 100 µM (inactive); with M14 it was > 100 µM (inactive); with SF-295, > 100 µM (inactive); in the experiment on HL-60, > 100 µM (inactive); with SNB-75, 14.9 µM (inactive). Besides, the GI50 in the experiment on SF-539, in the experiment on SW-620, in the experiment with OVCAR-4, in the experiment on HOP-62, in the experiment with OVCAR-8 and in the experiment with SNB-19 was > 100 µM (inactive) in each case. Also, the GI50 with A549 was > 100 µM (inactive).
